{
  "source": "patent US12649750B2",
  "about": "“Macrocyclic compounds, compositions, and methods of using thereof” (Sionna Therapeutics Inc., priority 2022, dated 2026)",
  "key": {"NBD1": {"target": "T1, NBD1 (Homo sapiens, UniProt P13569)", "T1 construct": "Purified recombinant NBD1 was produced using previously described methods; made in house", "T1 sequence (P13569 423-646 limits assumed)": "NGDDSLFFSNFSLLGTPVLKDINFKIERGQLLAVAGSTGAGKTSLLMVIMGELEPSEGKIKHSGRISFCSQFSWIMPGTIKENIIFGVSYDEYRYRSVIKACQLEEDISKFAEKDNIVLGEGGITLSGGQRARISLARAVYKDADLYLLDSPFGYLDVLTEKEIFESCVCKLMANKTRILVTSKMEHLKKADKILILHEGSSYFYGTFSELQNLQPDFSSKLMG", "test": "Aggregation analysis using differential static light scattering (DSLS), thermal stability of NBD1 (ΔTagg)", "format": "binding", "settings": "ΔTagg versus DMSO control, NBD1 0.2 mg/ml", "in_short": "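Purified recombinant NBD1 at 0.2 mg/ml in 50 mM Tris-HCl, 150 mM NaCl, 5 mM MgCl2, 2 mM ATP, 2 mM DTT, pH 7.6, 1% glycerol, with compound, heated 1° C./min to 70° C. under light-scattering monitoring. Tagg taken at curve inflection; ΔTagg is compound Tagg minus mean DMSO-control Tagg, binned A (≤5° C.), B (>5-≤10° C.), C (>10-≤25° C.).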"}, "CFTR": {"target": "T2, CFTR (Homo sapiens, UniProt P13569, DEL508-508)", "T2 construct": "Primary human bronchial epithelial cells from a ΔF508 homozygous CF donor; host or cells: primary human bronchial epithelial cells (CF-HBE), ΔF508 homozygous donor", "T2 sequence (P13569 with tags, fused parts or gaps DEL508-508)": "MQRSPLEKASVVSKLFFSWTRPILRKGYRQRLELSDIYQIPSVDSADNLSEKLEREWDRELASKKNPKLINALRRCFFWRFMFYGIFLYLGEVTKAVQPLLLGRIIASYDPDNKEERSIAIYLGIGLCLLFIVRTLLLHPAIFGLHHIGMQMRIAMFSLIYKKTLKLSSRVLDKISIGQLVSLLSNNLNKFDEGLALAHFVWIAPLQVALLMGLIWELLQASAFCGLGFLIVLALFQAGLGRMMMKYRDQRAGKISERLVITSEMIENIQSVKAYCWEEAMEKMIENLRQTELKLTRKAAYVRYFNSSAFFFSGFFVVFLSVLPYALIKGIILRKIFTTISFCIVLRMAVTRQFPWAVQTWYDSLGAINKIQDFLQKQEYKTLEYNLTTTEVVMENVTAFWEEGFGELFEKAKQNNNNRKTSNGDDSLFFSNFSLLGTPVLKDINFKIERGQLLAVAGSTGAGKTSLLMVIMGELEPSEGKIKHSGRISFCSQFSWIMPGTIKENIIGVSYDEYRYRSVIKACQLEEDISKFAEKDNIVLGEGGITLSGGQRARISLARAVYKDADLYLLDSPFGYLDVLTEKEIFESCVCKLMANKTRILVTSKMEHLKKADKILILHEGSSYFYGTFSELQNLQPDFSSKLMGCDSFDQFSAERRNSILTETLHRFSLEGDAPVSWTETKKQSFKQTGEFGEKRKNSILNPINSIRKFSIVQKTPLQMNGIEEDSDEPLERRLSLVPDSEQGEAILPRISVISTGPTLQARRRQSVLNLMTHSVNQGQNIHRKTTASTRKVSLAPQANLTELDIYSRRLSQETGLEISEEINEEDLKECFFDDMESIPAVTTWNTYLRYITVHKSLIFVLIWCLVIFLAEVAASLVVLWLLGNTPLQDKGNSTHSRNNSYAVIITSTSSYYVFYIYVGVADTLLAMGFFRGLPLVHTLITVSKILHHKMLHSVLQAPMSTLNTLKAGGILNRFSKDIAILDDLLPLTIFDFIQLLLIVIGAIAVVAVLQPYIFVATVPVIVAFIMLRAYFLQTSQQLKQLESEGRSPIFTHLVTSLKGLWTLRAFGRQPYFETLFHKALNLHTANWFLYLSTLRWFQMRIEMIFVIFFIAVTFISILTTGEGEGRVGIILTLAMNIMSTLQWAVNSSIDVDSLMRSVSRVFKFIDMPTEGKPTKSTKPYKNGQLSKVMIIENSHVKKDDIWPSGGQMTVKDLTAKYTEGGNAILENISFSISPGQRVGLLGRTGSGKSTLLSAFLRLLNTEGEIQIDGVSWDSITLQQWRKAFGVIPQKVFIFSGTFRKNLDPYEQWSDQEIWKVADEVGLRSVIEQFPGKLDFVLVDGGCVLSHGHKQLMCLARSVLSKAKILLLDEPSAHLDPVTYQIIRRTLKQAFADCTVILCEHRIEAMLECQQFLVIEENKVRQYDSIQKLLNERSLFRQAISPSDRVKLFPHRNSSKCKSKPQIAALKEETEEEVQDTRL", "test": "TECC24 AUC fold over DMSO @10 μM, CFTR-mediated transepithelial chloride transport in CF-HBE cells", "format": "cell-based", "settings": "test agent AUC divided by DMSO vehicle AUC, primary CF-HBE cells, ΔF508 homozygous donor, 48 hours incubation", "in_short": "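Primary ΔF508-homozygous CF bronchial epithelial cells on inserts were incubated 48 h at 36.5 °C with compound in IL-13-containing medium. VT and TEER were then recorded in current-clamp mode (pH 7.4 HEPES bath) with benzamil 10 μM, forskolin 10 μM, then CFTR inhibitor-172 20 μM. The IEQ AUC between forskolin and inhibitor was divided by vehicle AUC.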"}},
  "data": [
    {"molecule": "Cn1nc2nc1-c1cccc(c1)Oc1c(F)cc3[nH]ccc3c1CCS(=O)(=O)CC(C)(C)CCCC2(C)c1cccc(CCC(=O)O)c1", "note": "(single isomer, unassigned) [Compound 95B, 3-[3-(22-fluoro-3,6,10,10-tetramethyl-12,12-dioxo-24-oxa-12λ6-thia-3,4,19,30-tetrazapentacyclo[23.3.1.12,5.015,23.016,20]triaconta-1(29),2(30),4,15,17,20,22,25,27-nonaen-6-yl)phenyl]propanoic Acid]", "values": [
      {"measurement": "DSLS 3D (100 μM ΔT)", "setting": "NBD1", "value": "C (a value greater than 10 °C and less than or equal to 25 °C is marked “C”)"},
      {"measurement": "TECC (AUC, 10 μM)", "setting": "CFTR", "value": "A (a TECC value less than 12 is marked “A”)"}
    ]},
    {"molecule": "[2H]C([2H])([2H])C1(c2cccc(CCC(=O)O)c2)CCCC(C)(C)CS(=O)(=O)CCc2c(c(F)cc3[nH]ccc23)Oc2ccc(F)c(c2)-c2nc1nn2C", "note": "(single isomer, unassigned) [Compound 96A, 3-[3-[22,28-difluoro-3,10,10-trimethyl-12,12-dioxo-6-(trideuteriomethyl)-24-oxa-12lambda6-thia-3,4,19,30-tetrazapentacyclo-[23.3.1.12,5.015,23.016,20]triaconta-1(29),2(30),4,15,17,20,22,25,27-nonaen-6-yl]phenyl]propanoic Acid]", "values": [
      {"measurement": "DSLS 3D (100 μM ΔT)", "setting": "NBD1", "value": "C (a value greater than 10 °C and less than or equal to 25 °C is marked “C”)"},
      {"measurement": "TECC (AUC, 10 μM)", "setting": "CFTR", "value": "A (a TECC value less than 12 is marked “A”)"}
    ]},
    {"molecule": "[2H]C([2H])([2H])C1(c2cccc(CCC(=O)O)c2)CCCC(C)(C)CS(=O)(=O)CCc2c(c(F)cc3[nH]ccc23)Oc2ccc(F)c(c2)-c2nc1nn2C", "note": "(single isomer, unassigned) [Compound 96B, 3-[3-[22,28-difluoro-3,10,10-trimethyl-12,12-dioxo-6-(trideuteriomethyl)-24-oxa-12lambda6-thia-3,4,19,30-tetrazapentacyclo-[23.3.1.12,5.015,23.016,20]triaconta-1(29),2(30),4,15,17,20,22,25,27-nonaen-6-yl]phenyl]propanoic Acid]", "values": [
      {"measurement": "DSLS 3D (100 μM ΔT)", "setting": "NBD1", "value": "A (an ΔTagg value less than or equal to 5 °C is marked “A”)"},
      {"measurement": "TECC (AUC, 10 μM)", "setting": "CFTR", "value": "A (a TECC value less than 12 is marked “A”)"}
    ]},
    {"molecule": "Cn1nc2nc1-c1cc(ccc1F)Oc1c(F)cc3[nH]ccc3c1CCS(=O)(=O)CC(C)(C)CCCC2(C)c1cccc(CC(O)CO)c1", "note": "(single isomer, unassigned) [Compound 97A, 3-[3-(22,28-difluoro-3,6,10,10-tetramethyl-12,12-dioxo-24-oxa-12λ6-thia-3,4,19,30-tetrazapentacyclo[23.3.1.12,5.015,23.016,20]triaconta-1(29),2(30),4,15,17,20,22,25,27-nonaen-6-yl)phenyl]propane-1,2-diol]", "values": [
      {"measurement": "DSLS 3D (100 μM ΔT)", "setting": "NBD1", "value": "C (a value greater than 10 °C and less than or equal to 25 °C is marked “C”)"},
      {"measurement": "TECC (AUC, 10 μM)", "setting": "CFTR", "value": "A (a TECC value less than 12 is marked “A”)"}
    ]},
    {"molecule": "Cn1nc2nc1-c1cc(ccc1F)Oc1c(F)cc3[nH]ccc3c1CCS(=O)(=O)CC(C)(C)CCCC2(C)c1cccc(CC(O)CO)c1", "note": "(single isomer, unassigned) [Compound 97B, 3-[3-(22,28-difluoro-3,6,10,10-tetramethyl-12,12-dioxo-24-oxa-12λ6-thia-3,4,19,30-tetrazapentacyclo[23.3.1.12,5.015,23.016,20]triaconta-1(29),2(30),4,15,17,20,22,25,27-nonaen-6-yl)phenyl]propane-1,2-diol]", "values": [
      {"measurement": "DSLS 3D (100 μM ΔT)", "setting": "NBD1", "value": "A (an ΔTagg value less than or equal to 5 °C is marked “A”)"},
      {"measurement": "TECC (AUC, 10 μM)", "setting": "CFTR", "value": "A (a TECC value less than 12 is marked “A”)"}
    ]},
    {"molecule": "[2H]C([2H])([2H])C1(c2cccc(CCC(=O)O)c2)CCCC(C([2H])([2H])[2H])(C([2H])([2H])[2H])CS(=O)(=O)CCc2c(c(F)cc3[nH]ccc23)Oc2ccc(F)c(c2)-c2nc1nn2C", "note": "(single isomer, unassigned) [Compound 98A, 3-[3-[22,28-difluoro-3-methyl-12,12-dioxo-6,10,10-tris(trideuteriomethyl)-24-oxa-12lambda6-thia-3,4,19,30-tetrazapentacyclo-[23.3.1.12,5.015,23.016,20]triaconta-1(29),2(30),4,15,17,20,22,25,27-nonaen-6-yl]phenyl]propanoic acid]", "values": [
      {"measurement": "DSLS 3D (100 μM ΔT)", "setting": "NBD1", "value": "C (a value greater than 10 °C and less than or equal to 25 °C is marked “C”)"},
      {"measurement": "TECC (AUC, 10 μM)", "setting": "CFTR", "value": "B (a value between 12-20 is marked “B”)"}
    ]},
    {"molecule": "[2H]C([2H])([2H])C1(c2cccc(CCC(=O)O)c2)CCCC(C([2H])([2H])[2H])(C([2H])([2H])[2H])CS(=O)(=O)CCc2c(c(F)cc3[nH]ccc23)Oc2ccc(F)c(c2)-c2nc1nn2C", "note": "(single isomer, unassigned) [Compound 98B, 3-[3-[22,28-difluoro-3-methyl-12,12-dioxo-6,10,10-tris(trideuteriomethyl)-24-oxa-12lambda6-thia-3,4,19,30-tetrazapentacyclo-[23.3.1.12,5.015,23.016,20]triaconta-1(29),2(30),4,15,17,20,22,25,27-nonaen-6-yl]phenyl]propanoic acid]", "values": [
      {"measurement": "DSLS 3D (100 μM ΔT)", "setting": "NBD1", "value": "C (a value greater than 10 °C and less than or equal to 25 °C is marked “C”)"},
      {"measurement": "TECC (AUC, 10 μM)", "setting": "CFTR", "value": "C (a value between 20 and 80 is marked “C”)"}
    ]},
    {"molecule": "Cn1nc2nc1-c1cc(ccc1F)Oc1c(F)cc3[nH]ccc3c1Cc1ccn(n1)CCS(=O)(=O)CCC2(C)c1cccc(CCC(=O)O)c1", "note": "(single isomer, unassigned) [Compound 100A, 3-[3-(24,30-difluoro-3,6-dimethyl-9,9-dioxo-26-oxa-9λ6-thia-3,4,12,21,32,33-hexazahexacyclo[25.3.1.12,5.112,15.017,25.018,22]tritriaconta-1(31),2(33),4,13,15(32),17,19,22,24,27,29-undecaen-6-yl)phenyl]propanoic Acid]", "values": [
      {"measurement": "DSLS 3D (100 μM ΔT)", "setting": "NBD1", "value": "C (a value greater than 10 °C and less than or equal to 25 °C is marked “C”)"},
      {"measurement": "TECC (AUC, 10 μM)", "setting": "CFTR", "value": "A (a TECC value less than 12 is marked “A”)"}
    ]},
    {"molecule": "Cn1nc2nc1-c1cc(ccc1F)Oc1c(F)cc3[nH]ccc3c1Cc1ccn(n1)CCS(=O)(=O)CCC2(C)c1cccc(CCC(=O)O)c1", "note": "(single isomer, unassigned) [Compound 100B, 3-[3-(24,30-difluoro-3,6-dimethyl-9,9-dioxo-26-oxa-9λ6-thia-3,4,12,21,32,33-hexazahexacyclo[25.3.1.12,5.112,15.017,25.018,22]tritriaconta-1(31),2(33),4,13,15(32),17,19,22,24,27,29-undecaen-6-yl)phenyl]propanoic Acid]", "values": [
      {"measurement": "DSLS 3D (100 μM ΔT)", "setting": "NBD1", "value": "A (an ΔTagg value less than or equal to 5 °C is marked “A”)"},
      {"measurement": "TECC (AUC, 10 μM)", "setting": "CFTR", "value": "A (a TECC value less than 12 is marked “A”)"}
    ]},
    {"molecule": "Cc1c2nnn1Cc1c(c(F)cc3[nH]ccc13)Oc1ccc(F)c(c1)-c1nc(nn1C)C(C)(c1cccc(CCC(=O)O)c1)CCS(=O)(=O)C2", "note": "(single isomer, unassigned) [Compound 101A, 3-[3-(23,29-difluoro-3,6,31-trimethyl-9,9-dioxo-25-oxa-9lambda6-thia-3,4,12,13,14,20,32-heptazahexacyclo[24.3.1.12,5.111,14.016,24.017,21]-dotriaconta-1(30),2(32),4,11(31),12,16,18,21,23,26,28-undecaen-6-yl)phenyl]propanoic Acid]", "values": [
      {"measurement": "DSLS 3D (100 μM ΔT)", "setting": "NBD1", "value": "A (an ΔTagg value less than or equal to 5 °C is marked “A”)"},
      {"measurement": "TECC (AUC, 10 μM)", "setting": "CFTR", "value": "A (a TECC value less than 12 is marked “A”)"}
    ]},
    {"molecule": "Cc1c2nnn1Cc1c(c(F)cc3[nH]ccc13)Oc1ccc(F)c(c1)-c1nc(nn1C)C(C)(c1cccc(CCC(=O)O)c1)CCS(=O)(=O)C2", "note": "(single isomer, unassigned) [Compound 101B, 3-[3-(23,29-difluoro-3,6,31-trimethyl-9,9-dioxo-25-oxa-9lambda6-thia-3,4,12,13,14,20,32-heptazahexacyclo[24.3.1.12,5.111,14.016,24.017,21]-dotriaconta-1(30),2(32),4,11(31),12,16,18,21,23,26,28-undecaen-6-yl)phenyl]propanoic Acid]", "values": [
      {"measurement": "DSLS 3D (100 μM ΔT)", "setting": "NBD1", "value": "B (a value above 5 °C and less than or equal to 10 °C is marked “B”)"},
      {"measurement": "TECC (AUC, 10 μM)", "setting": "CFTR", "value": "A (a TECC value less than 12 is marked “A”)"}
    ]},
    {"molecule": "Cn1nc2nc1-c1cc(ccc1F)Oc1c(F)cc3[nH]ccc3c1CCS(=O)(=O)CC(F)(F)C(C)(C)CCC2(C)c1cccc(CCC(=O)O)c1", "note": "(single isomer, unassigned) [Compound 102A, 3-[3-[10,10,22,28-tetrafluoro-3,6,9,9-tetramethyl-12,12-dioxo-24-oxa-12lambda6-thia-3,4,19,30-tetrazapentacyclo[23.3.1.12,5.015,23.016,20]-triaconta-1(29),2(30),4,15,17,20,22,25,27-nonaen-6-yl]phenyl]propanoic Acid]", "values": [
      {"measurement": "DSLS 3D (100 μM ΔT)", "setting": "NBD1", "value": "A (an ΔTagg value less than or equal to 5 °C is marked “A”)"},
      {"measurement": "TECC (AUC, 10 μM)", "setting": "CFTR", "value": "A (a TECC value less than 12 is marked “A”)"}
    ]},
    {"molecule": "Cn1nc2nc1-c1cc(ccc1F)Oc1c(F)cc3[nH]ccc3c1CCS(=O)(=O)CC(F)(F)C(C)(C)CCC2(C)c1cccc(CCC(=O)O)c1", "note": "(single isomer, unassigned) [Compound 102B, 3-[3-[10,10,22,28-tetrafluoro-3,6,9,9-tetramethyl-12,12-dioxo-24-oxa-12lambda6-thia-3,4,19,30-tetrazapentacyclo[23.3.1.12,5.015,23.016,20]triaconta-1(29),2(30),4,15,17,20,22,25,27-nonaen-6-yl]phenyl]propanoic acid]", "values": [
      {"measurement": "DSLS 3D (100 μM ΔT)", "setting": "NBD1", "value": "B (a value above 5 °C and less than or equal to 10 °C is marked “B”)"},
      {"measurement": "TECC (AUC, 10 μM)", "setting": "CFTR", "value": "B (a value between 12-20 is marked “B”)"}
    ]}
  ]
}
